In patent publication US11590453B2, “Membrane disinfectant” (Diversey, Inc., priority 2017, dated 2023):

Experiment: pH of test solutions
Format: physicochemical

Measured: pH

O=[N+]([O-])O [Nitric Acid Solution, Nitric Acid]
2.00: solution of membrane compatibility test, Table 6 | solution of membrane compatibility test, Table 8 | solution of salt retention test, Table 7
